“And” between values parts separate entries of the source, which are not always exact repeats. Equal entries are not always repeated. Where two headings read alike, the source gives them in different places.
Assay: In vivo PK test, drug concentration in plasma after oral or intravenous administration
Conditions: mouse
Procedure: • Experimental Drug: Compound 11 • Excipient: 10% DMSO, 75% PEG400, 15% saline 1.2. Experimental system • mouse, CRljOri:CD1(ICR), SPF 6 weeks old (7 weeks old at the time of administration) 1.3. Administration route • oral administration (PO), intravenous administration (IV) 1.4. Administration method and number of administration
After obtaining the mouse, the mouse was acclimatized for 5 days, and used in the experiment. An administration dose was 25 mg/kg by oral administration and 5 mg/kg by intravenous administration. A dosage for each individual was calculated based on the weight after fasting (on the day of administration), and the drug was orally administered once to an oral administration (PO) group using a disposable syringe (1 mL) with a zonde for oral administration attached, and intravenously administered to the tail vein of an intravenous administration (IV) group using a disposable syringe (1 mL).
About 0.3 mL of blood was collected from a jugular vein with a 1 mL syringe (25G) treated with 3.8% sodium citrate (about 30˜40 μl), placed in one microtube (QSP, 1.5 mL), and centrifuged at 12,000 RPM/3 min to collect plasma. The plasma was frozen and stored at −80° C. until analysis, and all animals of a pharmacokinetic experiment group were euthanized after completing the blood collection.
580 μl of acetonitrile (including internal standard) was added to 20 μl of plasma/tissue, and centrifugation was performed at 4° C. at 15,000 rpm for 5 minutes with vortexing. A supernatant obtained after the centrifugation was analyzed with LC-MS/MS.
PK parameter was calculated as a non-compartmental analysis model, using a phoenix WinNonlin 6.4 version (Pharsight, USA) program.

[1] = CRljOri:CD1(ICR), 25 mg/kg oral administration, plasma

- concentration at 6 h (CRljOri:CD1(ICR), plasma, po, 25 mg/kg, oral 25 mg/kg, 6 hr): 5440 ng/mL
- concentration at 8 h (CRljOri:CD1(ICR), plasma, po, 25 mg/kg, oral 25 mg/kg, 8 hr, read-out: Drug concentration in plasma, Average): 5020 ng/mL
- concentration at 8 h (CRljOri:CD1(ICR), plasma, po, 25 mg/kg, oral 25 mg/kg, 8 hr, read-out: Drug concentration in plasma, Individual): 3930 ng/mL
- concentration at 24 h (CRljOri:CD1(ICR), plasma, po, 25 mg/kg, oral 25 mg/kg, 24 hr, BQL = <1 ng/ml, read-out: Drug concentration in plasma, Individual): 4.1 ng/mL
- concentration at 24 h (CRljOri:CD1(ICR), plasma, po, 25 mg/kg, oral 25 mg/kg, 24 hr, read-out: Drug concentration in plasma, Average): 3.6 ng/mL
- bioavailability (CRljOri:CD1(ICR), plasma, 25 mg/kg oral compared with 5 mg/kg intravenous, read-out: bioavailability (BA)): 62.4%
- AUC(0-t) [1]: 39400 ng·h/mL
- Cmax [1]: 5040 ng/mL
- Tmax [1]: 1.6 h
- half-life [1]: 3.9 h
- Drug concentration in plasma, Individual (intravenous 5 mg/kg, 24 hr, BQL = <1 ng/ml, ND = not detectable, 5 mg/kg): 1.7 ng/ml and BQL
- Drug concentration in plasma, Individual (oral 25 mg/kg, 24 hr, BQL = <1 ng/ml, 25 mg/kg): BQL and 2.5 ng/ml and 4.1 ng/ml
Compound: CC(C)(C)c1ccc(-c2cc(/C=C3\SC(=O)NC3=O)ccn2)cc1 [Compound 11, (Z)-5-((2-(4-(tert-butyl)phenyl)pyridin-4-yl)methylene)thiazolidine-2,4-dione]
- Drug concentration in plasma, Individual (intravenous 5 mg/kg, 0.08 hr, 5 mg/kg): 2800.0 ng/mL and 1900.0 ng/mL and 2700.0 ng/mL
- Drug concentration in plasma, Individual (intravenous 5 mg/kg, 0.25 hr, 5 mg/kg): 2240.0 ng/mL and 2890.0 ng/mL and 2430.0 ng/mL
- Drug concentration in plasma, Individual (intravenous 5 mg/kg, 0.5 hr, 5 mg/kg): 1890.0 ng/mL and 2360.0 ng/mL and 2000.0 ng/mL
- Drug concentration in plasma, Individual (intravenous 5 mg/kg, 1 hr, 5 mg/kg): 1780.0 ng/mL and 2380.0 ng/mL and 1630.0 ng/mL
- Drug concentration in plasma, Individual (intravenous 5 mg/kg, 2 hr, 5 mg/kg): 1420.0 ng/mL and 2240.0 ng/mL and 1480.0 ng/mL
- Drug concentration in plasma, Individual (intravenous 5 mg/kg, 4 hr, 5 mg/kg): 1410.0 ng/mL and 1400.0 ng/mL and 1260.0 ng/mL
- Drug concentration in plasma, Individual (intravenous 5 mg/kg, 6 hr, 5 mg/kg): 476.0 ng/mL and 491.0 ng/mL and 1080.0 ng/mL and 561.0 ng/mL
- Drug concentration in plasma, Individual (intravenous 5 mg/kg, 8 hr, 5 mg/kg): 614.0 ng/mL and 618.0 ng/mL and 644.0 ng/mL
- Drug concentration in plasma, Individual (oral 25 mg/kg, 0.25 hr, 25 mg/kg): 3210.0 ng/mL and 2230.0 ng/mL and 4300.0 ng/mL and 2000.0 ng/mL
- Drug concentration in plasma, Individual (oral 25 mg/kg, 0.5 hr, 25 mg/kg): 3590.0 ng/mL and 2340.0 ng/mL and 4750.0 ng/mL and 7010.0 ng/mL
- Drug concentration in plasma, Individual (oral 25 mg/kg, 1 hr, 25 mg/kg): 4140.0 ng/mL and 2380.0 ng/mL and 2070.0 ng/mL and 6490.0 ng/mL
- Drug concentration in plasma, Individual (oral 25 mg/kg, 2 hr, 25 mg/kg): 3270.0 ng/mL and 2030.0 ng/mL and 4100.0 ng/mL and 6070.0 ng/mL
- Drug concentration in plasma, Individual (oral 25 mg/kg, 4 hr, 25 mg/kg): 2020.0 ng/mL and 4420.0 ng/mL and 2930.0 ng/mL and 4810.0 ng/mL
- Drug concentration in plasma, Individual (oral 25 mg/kg, 6 hr, 25 mg/kg): 7260.0 ng/mL and 8180.0 ng/mL and 2630.0 ng/mL and 3680.0 ng/mL
- Drug concentration in plasma, Individual (oral 25 mg/kg, 8 hr, 25 mg/kg): 4120.0 ng/mL and 4850.0 ng/mL and 7180.0 ng/mL
